# From publication PMC3133734 (Journal of medicinal chemistry, 2011)
# Marks after values point to notes of the source that are not given here.
# Experiments:
# [1] = tested on: HIV-1 virus strain RF in CEM-SS cells; experiment: HIV-1 cytopathicity assay; type: cell-based; conditions: HIV-1RF
# [2] = molecular target: RNase H-deficient p66^DA/p51 HIV-1 RT (Human immunodeficiency virus type 1 group M subtype B, UniProt P04585, D1136A); experiment: DNA-dependent DNA polymerase assay, RNase H mutant p66^D549A/p51; type: biochemical; conditions: inhibitor 20 µM
# [3] = molecular target: RNase H-deficient p66^EQ/p51 HIV-1 RT (Human immunodeficiency virus type 1 group M subtype B, UniProt P04585, E1065Q); experiment: DNA-dependent DNA polymerase assay, RNase H mutant p66^E478Q/p51; type: biochemical; conditions: inhibitor 20 µM
Molecule,protection against the cytopathic effect of HIV (in words) [1],other results
"CCSCC(C)(O)[C@H]1CCc2c(c(C)cc(O)c(=O)c2O)C1 (mixture of isomers) [Compound 6, 2-(2-Ethylsulfanyl-1-hydroxy-1-methyl-ethyl)-5,7-dihydroxy-9-methyl-1,2,3,4-tetrahydrobenzocyclohepten-6-one]",slight protection against cytopathicity,–
"Cc1cc(O)c(=O)c(O)c2c1C[C@@H](C(C)NCc1ccccc1)CC2 (mixture of isomers) [Compound 14, 2-(1-Benzylamino-ethyl)-5,7-Dihydroxy-9-methyl-1,2,3,4-tetrahydrobenzocyclohepten-6-one]",protection against the cytopathicity of the virus,–
"Cc1cc(O)c(=O)c(O)c2c1C[C@@H](C(C)(O)CNc1ccccc1)CC2 (mixture of isomers) [Compound 5, 5,7-Dihydroxy-2-(1-hydroxy-1-methyl-2-phenylamino-ethyl)-9-methyl-1,2,3,4-tetrahydrobenzocyclohepten-6-one]",protection against the cytopathicity of the virus,inhibition of DNA-dependent DNA polymerase activity (in words) [2]: significantly and consistently inhibited; inhibition of DNA-dependent DNA polymerase activity (in words) [3]: significantly and consistently inhibited
"C=C(C)[C@H]1CCc2c(c(C)cc(O)c(=O)c2O)C1 [Manicol, 5,7-dihydroxy-2-isopropenyl-9-methyl-1,2,3,4-tetrahydro-benzocyclohepten-6-one, reference compound]",no protection against the cytopathic effect of HIV,–
"Cc1cc(O)c(=O)c(O)c2c1C[C@@H](C(C)(O)Cn1ccnc1)CC2 (mixture of isomers) [Compound 2, 5,7-Dihydroxy-2-(1-hydroxy-2-imadazol-1-yl-1-methyl-ethyl)-9-methyl-1,2,3,4-tetrahydro benzocyclohepten-6-one]",protection against the cytopathicity of the virus,–
"CCN(CC)CC(C)(O)[C@H]1CCc2c(c(C)cc(O)c(=O)c2O)C1 (mixture of isomers) [Compound 3, 2-(2-Diethylamino-1-hydroxy-1-methyl-ethyl)-5,7-dihydroxy-9-methyl-1,2,3,4-tetrahydrobenzocyclohepten-6-one]",slight protection against cytopathicity,"Viral Replication EC50 column, protective effect class ([1]; highest concentration 50 µM): < 50% ^c"
"2,7-dihydroxy-4-isopropyl-cyclohepta-2,4,6-triene [β-Thujaplicinol, reference compound]",no protection against the cytopathic effect of HIV,–
"Cc1cc(O)c(=O)c(O)c2c1C[C@@H](C(C)(O)CSc1ccccc1)CC2 (mixture of isomers) [Compound 7, 5,7-Dihydroxy-2-(1-hydroxy-1-methyl-2-phenylsulfanyl-ethyl)-9-methyl-1,2,3,4-tetrahydrobenzocyclohepten-6-one]",protection against the cytopathicity of the virus,–
"Cc1cc(O)c(=O)c(O)c2c1C[C@@H](C(C)(O)CNCc1ccccc1F)CC2 (mixture of isomers) [Compound 4, 2-[2-(2-Fluoro-benzylamino)-1-hydroxy-1-methyl-ethyl]-5,7-dihydroxy-9-methyl-1,2,3,4-tetrahydrobenzocyclohepten-6-one]",no protection against virus cytopathicity,–
"Cc1cc(O)c(=O)c(O)c2c1CC(C(C)(O)CO)CC2 (stereo not drawn) [Compound 12, 2-(1,2-Dihydroxy-1-methyl-ethyl)-5,7-dihydroxy-9-methyl-1,2,3,4-tetrahydrobenzocyclohepten-6-one]",no protection against virus cytopathicity,–
"Cc1cc(O)c(=O)c(O)c2c1C[C@@H](C(C)O)CC2 (mixture of isomers) [Compound 13, 5,7-Dihydroxy-2-(1-hydroxy-ethyl)-9-methyl-1,2,3,4-tetrahydrobenzocyclohepten-6-one]",protection against the cytopathicity of the virus,–
"Cc1cc(O)c(=O)c(O)c2c1C[C@@H](C(C)(O)CSCc1ccccc1)CC2 (mixture of isomers) [Compound 8, 2-(2-Benzylsulfanyl-1-hydroxy-1-methyl-ethyl)-5,7-dihydroxy-9-methyl-1,2,3,4-tetrahydrobenzocyclohepten-6-one]",protection against the cytopathicity of the virus,–
"Cc1cc(O)c(=O)c(O)c2c1C[C@@H](C(C)(O)CN1CCCCC1)CC2 (mixture of isomers) [Compound 1, 5,7-Dihydroxy-2-(1-hydroxy-1-methyl-2-piperidin-1-yl-ethyl)-9-methyl-1,2,3,4-tetrahydro benzocyclohepten-6-one]",protection against the cytopathicity of the virus,In vitro therapeutic index (CC50/EC50) [1]: 4.9
"CCS(=O)(=O)CC(C)(O)[C@H]1CCc2c(c(C)cc(O)c(=O)c2O)C1 (mixture of isomers) [Compound 9, 2-(2-Ethanesulfonyl-1-hydroxy-1-methyl-ethyl)-5,7-dihydroxy-9-methyl-1,2,3,4-tetrahydrobenzocyclohepten-6-one]",slight protection against cytopathicity,–
